Experimental data: patent US20260042731A1, “(2,4-DICHLOROPHENOXY)ACETIC ACID ANALOGS” (CORTEVA AGRISCIENCE LLC, priority 2022, published 2026)
Read-outs that look alike come from different tables or passages of the source.

Key:
[1] = system: weeds ABUTH, AMATA, AMBEL, CHEAL, ERICA; assay: Postemergence herbicide evaluation, overall average % weed control across ABUTH, AMATA, AMBEL, CHEAL and ERICA; assay type: in vivo; settings: post-emergence, average over five weeds, read-out: Overall Ave % Weed Control; for pest or weed control at 280 g/ha: 280 g ae/ha; for pest or weed control at 560 g/ha: 560 g ae/ha
[2] = system: Ambrosia artemisiifolia (AMBEL), common ragweed; assay: Postemergence herbicide evaluation, growth of Ambrosia artemisiifolia (AMBEL); assay type: in vivo; settings: Ambrosia artemisiifolia, post-emergence, percent reduction in plant size vs untreated control, read-out: AVE. AMBEL; for pest or weed control at 280 g/ha: 280 g ae/ha; for pest or weed control at 560 g/ha: 560 g ae/ha
[3] = Volatility of compounds measured by thermogravimetric analysis (TGA); assay type: physicochemical
[4] = system: Abutilon theophrasti (ABUTH), velvetleaf; assay: Postemergence herbicide evaluation, growth of Abutilon theophrasti (ABUTH); assay type: in vivo; settings: Abutilon theophrasti, post-emergence, percent reduction in plant size vs untreated control, read-out: AVE. ABUTH; for pest or weed control at 280 g/ha: 280 g ae/ha; for pest or weed control at 560 g/ha: 560 g ae/ha
[5] = system: Chenopodium album (CHEAL), common lambsquarters; assay: Postemergence herbicide evaluation, growth of Chenopodium album (CHEAL); assay type: in vivo; settings: Chenopodium album, post-emergence, percent reduction in plant size vs untreated control, read-out: Ave. CHEAL; for pest or weed control at 280 g/ha: 280 g ae/ha; for pest or weed control at 560 g/ha: 560 g ae/ha
[6] = system: glyphosate resistant Conyza canadensis (L.) (ERICA), horseweed; assay: Postemergence herbicide evaluation, growth of Conyza canadensis (ERICA); assay type: in vivo; settings: Erigeron canadensis, post-emergence, percent reduction in plant size vs untreated control, read-out: Ave. ERICA; for pest or weed control at 280 g/ha: 280 g ae/ha; for pest or weed control at 560 g/ha: 560 g ae/ha
[7] = system: Amaranthus rudis (AMATA), tall water hemp; assay: Postemergence herbicide evaluation, growth of Amaranthus rudis (AMATA); assay type: in vivo; settings: Amaranthus tuberculatus, post-emergence, percent reduction in plant size vs untreated control, read-out: Ave. AMATA; for pest or weed control at 280 g/ha: 280 g ae/ha; for pest or weed control at 560 g/ha: 560 g ae/ha

Compound | pest or weed control at 280 g/ha ([1]; 168 h, 7 DAA) [%] | pest or weed control at 560 g/ha ([1]; 168 h, 7 DAA) [%] | pest or weed control at 280 g/ha ([1]; 336 h, 14 DAA) [%] | pest or weed control at 560 g/ha ([1]; 336 h, 14 DAA) [%] | pest or weed control at 280 g/ha ([1]; 504 h, 21 DAA) [%] | pest or weed control at 560 g/ha ([1]; 504 h, 21 DAA) [%] | pest or weed control at 280 g/ha ([2]; 168 h, 7 DAA) [%] | pest or weed control at 560 g/ha ([2]; 168 h, 7 DAA) [%] | pest or weed control at 280 g/ha ([2]; 336 h, 14 DAA) [%] | pest or weed control at 280 g/ha ([2]; 504 h, 21 DAA) [%] | pest or weed control at 560 g/ha ([2]; 504 h, 21 DAA) [%] | TGA Data (rate of weight loss, volatility) [3] [µg/min] | pest or weed control at 280 g/ha ([4]; 168 h, 7 DAA) [%] | pest or weed control at 560 g/ha ([4]; 168 h, 7 DAA) [%] | pest or weed control at 280 g/ha ([4]; 336 h, 14 DAA) [%] | pest or weed control at 560 g/ha ([4]; 336 h, 14 DAA) [%] | pest or weed control at 280 g/ha ([4]; 504 h, 21 DAA) [%] | pest or weed control at 560 g/ha ([4]; 504 h, 21 DAA) [%] | pest or weed control at 280 g/ha ([5]; 168 h, 7 DAA) [%] | pest or weed control at 560 g/ha ([5]; 168 h, 7 DAA) [%] | further results
COc1ccc(CONC(=O)COc2ccc(Cl)cc2Cl)cc1 [Compound D20] | 77.5 | 75 | 88.9 | 90.3 | 90.2 | 91.2 | 80 | 77.5 | 70 | 100 | 100 | 0.0112 | 77.5 | 55 | 90 | 67.5 | 98.5 | 80 | 85 | 82.5 | pest or weed control at 280 g/ha ([5]; 336 h, 14 DAA): 87.5%; pest or weed control at 560 g/ha ([5]; 336 h, 14 DAA): 94.5%; pest or weed control at 280 g/ha ([5]; 504 h, 21 DAA): 99%; pest or weed control at 560 g/ha ([5]; 504 h, 21 DAA): 95%; pest or weed control at 280 g/ha ([6]; 168 h, 7 DAA): 72.5%; pest or weed control at 560 g/ha ([6]; 168 h, 7 DAA): 82.5%; pest or weed control at 280 g/ha ([6]; 336 h, 14 DAA): 99.5%; pest or weed control at 560 g/ha ([6]; 336 h, 14 DAA): 98.5%; pest or weed control at 280 g/ha ([6]; 504 h, 21 DAA): 96%; pest or weed control at 560 g/ha ([6]; 504 h, 21 DAA): 96%; pest or weed control at 280 g/ha ([7]; 168 h, 7 DAA): 72.5%; pest or weed control at 560 g/ha ([7]; 168 h, 7 DAA): 77.5%; pest or weed control at 280 g/ha ([7]; 336 h, 14 DAA): 97.5%; pest or weed control at 560 g/ha ([7]; 336 h, 14 DAA): 96%; pest or weed control at 280 g/ha ([7]; 504 h, 21 DAA): 57.5%
O=C(COc1ccc(Cl)cc1Cl)Nc1ccccn1 [Compound D28] | 79 | 83.1 | 95.8 | 95.8 | 96.2 | 99 | 75 | 85 | 90 | 100 | 100 | 0.06 | 77.5 | 72.5 | 96.5 | 97.5 | 100 | 100 | 80 | 77.5 | pest or weed control at 560 g/ha ([2]; 336 h, 14 DAA): 100%; pest or weed control at 280 g/ha ([5]; 336 h, 14 DAA): 97%; pest or weed control at 560 g/ha ([5]; 336 h, 14 DAA): 96.5%; pest or weed control at 280 g/ha ([5]; 504 h, 21 DAA): 100%; pest or weed control at 560 g/ha ([5]; 504 h, 21 DAA): 96.5%; pest or weed control at 280 g/ha ([6]; 168 h, 7 DAA): 82.5%; pest or weed control at 560 g/ha ([6]; 168 h, 7 DAA): 82.5%; pest or weed control at 280 g/ha ([6]; 336 h, 14 DAA): 99.5%; pest or weed control at 560 g/ha ([6]; 336 h, 14 DAA): 97.5%; pest or weed control at 280 g/ha ([6]; 504 h, 21 DAA): 99.5%; pest or weed control at 560 g/ha ([6]; 504 h, 21 DAA): 98.5%; pest or weed control at 280 g/ha ([7]; 168 h, 7 DAA): 80%; pest or weed control at 560 g/ha ([7]; 168 h, 7 DAA): 98%; pest or weed control at 280 g/ha ([7]; 336 h, 14 DAA): 96%; pest or weed control at 560 g/ha ([7]; 336 h, 14 DAA): 87.5%; pest or weed control at 280 g/ha ([7]; 504 h, 21 DAA): 81.5%; pest or weed control at 560 g/ha ([7]; 504 h, 21 DAA): 100%
C=CCONC(=O)COc1ccc(Cl)cc1Cl [Compound D33] | 85.7 | 77.7 | 96.9 | 94.9 | 98.2 | 97.8 | 86 | 80 | 96 | 100 | 100 | 0.34 | 85 | 92.5 | 98.5 | 99.5 | 100 | 100 | 82.5 | 46.5 | pest or weed control at 560 g/ha ([2]; 336 h, 14 DAA): 90%; pest or weed control at 280 g/ha ([5]; 336 h, 14 DAA): 98%; pest or weed control at 560 g/ha ([5]; 336 h, 14 DAA): 92.5%; pest or weed control at 280 g/ha ([5]; 504 h, 21 DAA): 96.5%; pest or weed control at 560 g/ha ([5]; 504 h, 21 DAA): 99%; pest or weed control at 280 g/ha ([6]; 168 h, 7 DAA): 82.5%; pest or weed control at 560 g/ha ([6]; 168 h, 7 DAA): 77.5%; pest or weed control at 280 g/ha ([6]; 336 h, 14 DAA): 99.5%; pest or weed control at 560 g/ha ([6]; 336 h, 14 DAA): 100%; pest or weed control at 280 g/ha ([6]; 504 h, 21 DAA): 99.5%; pest or weed control at 560 g/ha ([6]; 504 h, 21 DAA): 97.5%; pest or weed control at 280 g/ha ([7]; 168 h, 7 DAA): 92.5%; pest or weed control at 560 g/ha ([7]; 168 h, 7 DAA): 92%; pest or weed control at 280 g/ha ([7]; 336 h, 14 DAA): 92.5%; pest or weed control at 560 g/ha ([7]; 336 h, 14 DAA): 92.5%; pest or weed control at 280 g/ha ([7]; 504 h, 21 DAA): 95%; pest or weed control at 560 g/ha ([7]; 504 h, 21 DAA): 92.5%
